Experimental data: patent publication US4460560A, “Drug delivery by polymeric carriers” (University of Southern California, priority 1982, dated 1984)

Key:
hepatocytes [1] = test: Cell viability by 51Cr release; assay type: cell-based, rat; design: concentration or dose not given beside the values
Experimental: (§1) Cytotoxic effects of the microspheres of EXAMPLE 3 and free doxorubicin were investigated using short-term monolayer cultures established from the livers of normal rats and rats which had been fed 2-AAF or DEN. Cell viability was evaluated by trypan blue exclusion and confirmed by ^51 Cr release.
(§2) Male Fischer 344 rats weighing 150 to 200 g were used to obtain viable hepatocytes. The animals were fed a basal, high-casein diet. A 12-hr light cycle was maintained in the animal colony and water was given ad libitum. Carcinogen altered hepatocytes were produced by feeding the animals a diet containing 0.02% 2-AAF (w/w) or 80 ppm DEN in the drinking water for 8 to 12 weeks. Cells from such animals were used in the cytotoxicity and cell viability studies reported herein.
(§3) Liver cell suspensions were prepared by the collagenase perfusion technique. Cell suspensions were passed through sterile gauze filters to remove large tissue pieces. Viability was assessed by trypan blue exclusion and perfusates containing less than 65% viable cells were not used. Cells were plated at density of 1×10^6 viable cells per plastic culture flask of 25 cm^2 surface area in 4 ml of L-15 medium containing 3.5 mg/ml 4-(2-hydroxyethyl)-1-piperazineethanesulfonic acid and 2 mg/ml bovine serum albumin. The medium was supplemented with 10% fetal bovine serum, 100 μg/ml penicillin, and streptomycin. Following a 2 hour attachment period at 37° in a water-saturated 5% CO2 -95% air incubator, the cells were washed twice with medium and placed in 4ml of fresh medium supplemented with 200 μl PBS, free doxorubicin, uncoupled microspheres, or the polymer bound drug. At various times 0.8 ml of trypan blue was added to each flask and incubated for 10 minutes at 37°. The medium was removed and the number of viable cells was counted.
^51 Cr in the form of sodium chromate in sterile isotonic saline was added to the cell suspensions at a concentration of 100 μCi/0.5 ml/5×10^6 cells. The cells were then incubated at 37° for 1 hour with constant shaking. After labeling, the supernatent was removed by centrifugation at 350×g for 5 min and the cells were washed a minimum of 5 times in L-15 medium. Labeled cells were then aliquoted into culture flasks and allowed to attach as previously described. At various times 250 μl aliquots were removed from the flasks and counted in a Packard Gamma Counter. As a control for complete ^51 Cr release, 0% cell viability, cells were detached from the culture flask surface with 10% trypsin and subsequently lysed with 0.5% Nonidet P-40 followed by sonication. Total ^51 Cr release was obtained by subtraction of the residual radioactivity which remained associated with the cell debris.

S-180 = test: Cytostatic assay, IC50 determination; assay type: cell-based; conditions: after 4 to 6 doubling times, average of three determinations
Experimental: (§4) In order to test the cytostatic activity of the microspheres, IC50 determinations were made with both the free drug and the drug-polymer complexes. All cell lines were maintained in suspension cultures in RPMI-1640 medium supplemented with the 2% fetal calf serum, 8% newborn calf serum, 0.5 mg/ml penicillin-streptomycin, and 0.015 mg/ml fungizone. The cells were diluted to 40,000 cells/assay/1.8 ml medium and an amount of free doxorubicin, doxorubicin-microspheres or plain microspheres was added in 0.2 ml of phosphate buffered saline. After 4 to 6 doubling times had elapsed, the remaining cells were counted on a Coulter counter. A ratio of the number of cells after incubation per the number of cells originally introduced (Nt/No) was obtained. The drug concentration required for 50% inhibition of cell growth (IC50) was calculated according to the formula [formula]

CCRF-CEM = test: Cytostatic assay, IC50 determination; assay type: cell-based; conditions: Homo sapiens, after 4 to 6 doubling times, average of three determinations
Experimental: as §4

L1210 = test: Cytostatic assay, IC50 determination; assay type: cell-based; conditions: Mus musculus, after 4 to 6 doubling times, average of three determinations
Experimental: as §4

CCRF-CEM/Vbl 500 = test: Cytostatic assay, IC50 determination; assay type: cell-based; conditions: Homo sapiens, after 4 to 6 doubling times, average of three determinations
Experimental: as §4

CCRF-CEM/Vbl 100 = test: Cytostatic assay, IC50 determination; assay type: cell-based; conditions: Homo sapiens, after 4 to 6 doubling times, average of three determinations
Experimental: as §4

CEM/Vbl 500 = test: Growth inhibition study; assay type: cell-based, human; conditions: Table 7, CEM/Vbl 100
Experimental: (§5) Cell lines used were the human leukemia clones CCRF-CEM/Vbl 500 and CCRF-CEM/Vbl 100 and rat liver cancer cells (RLC). All cultures were maintained in RPMI-1640 medium supplemented with fetal calf serum (2%), newborn calf serum (8%), penicillin-streptomycin (0.5 mg/ml), and fungizone (0.015 mg/ml) (Flow Laboratories Inc.). Suspension cultures were diluted to 4×10^4 cells/assay/1.8 ml medium and attached cell lines were plated at 2.5×10^5 cells/25 cm^2 growth area/3.6 ml medium. Appropriate quantities of free doxorubicin, microsphere coupled doxorubicin, plain polyglutaraldehyde microspheres, or PBS, were added and the assays were incubated for 3-6 doubling times at 37° in a 5% CO2 - 95% air incubator. Cells were then counted on a Model Zb Coulter counter and a ratio of total number of cells after incubation per number of cells originally introduced (Nt /No) was obtained.
(§6) The cell lines CEM/Vbl 100 and CEM/Vbl 500 were used in cytostatic assays to determine differences in growth inhibition properties between free doxorubicin and polymer-bound drug. Both cell lines are resistant to the effects of vinca alkaloids and are cross-resistant to Adr. […] However, using 10^-7 M of the coupled drug, the growth inhibition for both cell lines is greater than 50%. At 10^-8 M, polymer bound doxorubicin inhibits growth 4-10 times more effectively than free drug. […] Each experiment was performed three times and drug concentrations were tested in duplicate.

CEM/Vbl 100 = test: Growth inhibition study; assay type: cell-based, human; conditions: 3-6 doubling times
Experimental: as §5, §6

[2] = test system: hepatocytes made resistant by DEN feeding; test: Viability of carcinogen altered drug-resistant hepatocytes; assay type: cell-based, rat; conditions: 24 hours; 10^-6 M
Source text: as §2
Liver cell suspensions were prepared by the collagenase perfusion technique. Cell suspensions were passed through sterile gauze filters to remove large tissue pieces. Viability was assessed by trypan blue exclusion and perfusates containing less than 65% viable cells were not used. Cells were plated at density of 1×10^6 viable cells per plastic culture flask of 25 cm^2 surface area in 4 ml of L-15 medium containing 3.5 mg/ml 4-(2-hydroxyethyl)-1-piperazineethanesulfonic acid and 2 mg/ml bovine serum albumin. The medium was supplemented with 10% fetal bovine serum, 100 μg/ml penicillin, and streptomycin. […] The medium was removed and the number of viable cells was counted. […]

[3] = Time-survival response, trypan blue viability; assay type: cell-based; conditions: rat, hepatocytes, 10^-6 M
Source text: as §2, §3
These studies are not continued for longer than 24 hours due to the rapid natural decline in viability observed with untreated cells after prolonged cell culture. The viability of untreated control cultures remained constant throughout each experiment. […] However, cell viability in the presence of free drug was not affected during the first 4 hours of treatment. Alternatively, at 24 hours only 10% of the cells treated with free drug remained viable while 64% of those treated with the bound drug were unaffected. Cell viability was not influenced by addition of uncoupled microspheres to the cultures.

hepatocytes [4] = test: Cell viability by trypan blue exclusion (Table 2); assay type: cell-based, rat; design: concentration or dose not given beside the values
Experimental: as §1, §2, §3

[5] = test system: rat liver cancer cell line RLC; test: Growth inhibition study; assay type: cell-based
Experimental: as §5
The cytostatic activity of the drug polymer complex of EXAMPLE 3 was further investigated using the rat liver cancer cell line RLC. […] Furthermore, the Adr-PGLs retained growth inhibition properties at concentrations as low as 1×10^-9 M.

[6] = test system: hepatocytes made resistant by 2-AAF feeding; test: Viability of carcinogen altered drug-resistant hepatocytes; assay type: cell-based, rat; conditions: for viability at 1 µM: 10^-6 M
Source text: as §2, §3
Hepatocytes in perfusates obtained from rats which had been fed the dietary carcinogen 2-AAF are highly resistant to the cytocidal effects of doxorubicin. Experiments were performed to determine the toxicity of the doxorubicin microspheres with regard to these resistant hepatocytes. […] Concentrations of free doxorubicin must be approximately 100-fold higher than the polymer-bound drug to decrease viability to 50%. The most significant differences in cytotoxicity occurred at a concentration of 10^-5 M where the free drug treated hepatocytes remained unaffected and polymer-bound doxorubicin decreased viability to 47%. Subsequent experiments were done with 10^-6 M, free or bound drug, to approach clinically relevant concentrations.
Cell kill kinetics of hepatocytes made resistant by 2-AAF feeding are depicted in TABLE 5. […] At 24 hours, only 67% of the cells remained viable. When hepatocytes made resistant by DEN feeding were used, the same results for free and polymer-bound Adr at 10^-6 M were obtained.

[7] = Homo sapiens, CEM/VBL100, 10^-5 M
[8] = Homo sapiens, CEM/VBL100, 10^-6 M
[9] = Homo sapiens, CEM/VBL100, 10^-7 M
[10] = Homo sapiens, CEM/VBL100, 10^-8 M
[11] = Homo sapiens, CEM/VBL100, 10^-9 M
[12] = Homo sapiens, CEM/VBL100, 10^-10 M

Compound: COc1cccc2c1C(=O)c1c(O)c3c(c(O)c1C2=O)C[C@@](O)(C(=O)CO)C[C@@H]3O[C@H]1C[C@H](N)[C@H](O)[C@H](C)O1 [Free doxorubicin, doxorubicin]
- Percent viability measured by Intracellular CR^51 (hepatocytes [1]; incubation time 3 hr): 100%
- Percent viability measured by Intracellular CR^51 (hepatocytes [1]; incubation time 5 hr): 96%
- Percent viability measured by Intracellular CR^51 (hepatocytes [1]; incubation time 8 hr): 86%
- Percent viability measured by Intracellular CR^51 (hepatocytes [1]; incubation time 12 hr): 75%
- Percent viability measured by Intracellular CR^51 (hepatocytes [1]; incubation time 18 hr): 57%
- IC50 (S-180): 23 nM
- IC50 (CCRF-CEM): 11 nM
- IC50 (L1210): 28 nM
- IC50 (CCRF-CEM/Vbl 500): 320 nM
- IC50 (CCRF-CEM/Vbl 100): 390 nM
- % Inhibition of growth (CEM/Vbl 500; 10^-7 M, listed as Free Drug): 32%
- inhibition at 10 µM (CEM/Vbl 500; [7]): 81%
- inhibition at 1 µM (CEM/Vbl 500; [8]): 67%
- inhibition at 0.1 µM (CEM/Vbl 500; [9]): < 32%
- inhibition at 0.01 µM (CEM/Vbl 500; [10]): 14%
- inhibition at 0.001 µM (CEM/Vbl 500; [11]): 0%
- inhibition at 0.0001 µM (CEM/Vbl 500; [12]): 0%
- inhibition at 10 pM (CEM/Vbl 500; Homo sapiens, CEM/VBL100, 10^-11 M): 0%
- % Inhibition of growth (CEM/Vbl 100; 10^-7 M, listed as Free Drug): 22%
- inhibition at 10 µM (CEM/Vbl 100; [7]): 98%
- inhibition at 1 µM (CEM/Vbl 100; [8]): 86%
- inhibition at 0.1 µM (CEM/Vbl 100; [9]): < 22%
- inhibition at 0.01 µM (CEM/Vbl 100; [10]): 3%
- inhibition at 0.001 µM (CEM/Vbl 100; [11]): 5%
- inhibition at 0.0001 µM (CEM/Vbl 100; [12]): 0%
- viability [2]: no killing effect
- viability at 2 h, 1 µM ([3]; 2 hours): 99%
- viability at 4 h, 1 µM ([3]; 4 hours): 98%
- viability at 6 h, 1 µM ([3]; 6 hours): 91%
- viability at 8 h, 1 µM ([3]; 8 hours): 81%
- viability at 12 h, 1 µM ([3]; 12 hours): 72%
- viability at 18 h, 1 µM ([3]; 18 hours): 59%
- viability at 24 h, 1 µM ([3]; 24 hours): 10%
- Percent viability measured by Dye Exclusion (hepatocytes [4]; incubation time 3 hr): 100%
- Percent viability measured by Dye Exclusion (hepatocytes [4]; incubation time 5 hr): 99%
- Percent viability measured by Dye Exclusion (hepatocytes [4]; incubation time 8 hr): 81%
- Percent viability measured by Dye Exclusion (hepatocytes [4]; incubation time 12 hr): 72%
- Percent viability measured by Dye Exclusion (hepatocytes [4]; incubation time 18 hr): 59%
- inhibition at 1000 µM ([5]; 10^-3 M): 100%
- inhibition at 100 µM ([5]; 10^-4 M): 80%
- inhibition at 10 µM ([5]; 10^-5 M): 36%
- inhibition at 1 µM ([5]; 10^-6 M): 22%
- inhibition at 0.1 µM ([5]; 10^-7 M): 0%
- inhibition at 0.01 µM ([5]; 10^-8 M): 0%
- inhibition at 0.001 µM ([5]; 10^-9 M): 0%
- inhibition at 0.0001 µM ([5]; 10^-10 M): 0%
- IC50 ([5]; RLC, read-out: 50% inhibitory concentration (IC50)): 18 µM
- % Viability ([6]; 10^-5 M, 24-hr exposure, survival of attached cells compared to controls): unaffected
- % Viability ([6]; 24 hours, 10^-6 M (Table 5)): no detectable killing effect
- viability at 100 µM ([6]; Rattus norvegicus, Hepatocyte, 10^-4 M, 24-hr exposure, survival of attached cells compared to controls): 68%
- viability at 10 µM ([6]; Rattus norvegicus, Hepatocyte, 10^-5 M, 24-hr exposure, survival of attached cells compared to controls): 100%
- viability at 1 µM ([6]; Rattus norvegicus, Hepatocyte, 24-hr exposure, survival of attached cells compared to controls (Table 3)): 100%
- viability at 0.1 µM ([6]; Rattus norvegicus, Hepatocyte, 10^-7 M, 24-hr exposure, survival of attached cells compared to controls): 100%
- viability at 1 µM ([6]; Rattus norvegicus, Hepatocyte, 2 hours): 100%
- viability at 1 µM ([6]; Rattus norvegicus, Hepatocyte, 3 hours): 100%
- viability at 1 µM ([6]; Rattus norvegicus, Hepatocyte, 4 hours): 100%
- viability at 1 µM ([6]; Rattus norvegicus, Hepatocyte, 6 hours): 100%
- viability at 1 µM ([6]; Rattus norvegicus, Hepatocyte, 8 hours): 100%
- viability at 1 µM ([6]; Rattus norvegicus, Hepatocyte, 16 hours): 100%
- viability at 1 µM ([6]; Rattus norvegicus, Hepatocyte, 22 hours): 100%
